Here are results for five molecules from ChEMBL document CHEMBL5390284, “Shikimate-Derived Meroterpenoids from the Ascidian-Derived Fungus Amphichorda felina SYSU-MS7908 and Their Anti-Glioma Activity” (J Nat Prod, 2023).

Calls of active or inactive are those of the source. No cut-off for these calls is given here.

Assay [1] has as its system T98G. Briefly: Inhibition of cell invasion in human T98G cells at 5 to 10 uM incubated for 48 hrs by crystal violet staining based fluorescent microscope analysis. The format is functional. Conditions: dose 5-10 µM.
The test system of assay [2] is U-87 MG. The experiment in a line: Induction of apoptosis in human U-87 MG cells assessed as early apoptotic cells at 2 uM incubated for 48 hrs by Annexin V-FITC/PI staining based flow cytometry analysis (reference value: 1.1 +/- 0.6 %). It is filed as functional, U-87MG ATCC.
The test system of assay [3] is U-251. The experiment in a line: Inhibition of cell invasion in human U-251 cells at 5 to 10 uM incubated for 48 hrs by crystal violet staining based fluorescent microscope analysis. The format is functional. Conditions: dose 5-10 µM.
Assay [4] concerns T98G. Briefly: Induction of apoptosis in human T98G cells assessed as late apoptotic cells at 2 uM incubated for 48 hrs by Annexin V-FITC/PI staining based flow cytometry analysis (reference value: 3.7 +/- 0.3 %). The format is functional. On the technique in general: In flow cytometry, cells or beads pass a laser one at a time.
Assay [5] has as its system U-251. The experiment in a line: Induction of apoptosis in human U-251 cells assessed as early apoptotic cells at 5 uM incubated for 48 hrs by Annexin V-FITC/PI staining based flow cytometry analysis (reference value: 1.5 +/- 0.4 %). The format is functional.
For assay [6], the system named is U-251. Briefly: Induction of apoptosis in human U-251 cells assessed as total apoptotic cells at 2 uM incubated for 48 hrs by Annexin V-FITC/PI staining based flow cytometry analysis (reference value: 2.8 +/- 0.3%). It is filed as functional.
The subject of assay [7] is T98G. The experiment in a line: Induction of apoptosis in human T98G cells assessed as early apoptotic cells at 5 uM incubated for 48 hrs by Annexin V-FITC/PI staining based flow cytometry analysis (reference value: 2.7 +/- 0.5 %). The format is functional.
For assay [8], the system named is U-251. Briefly: Antiproliferative activity against human U-251 cells assessed as inhibition of cell growth incubated for 48 hrs by MTT assay. The format is functional, cell-based. Particulars: U-251, 48 h.
The subject of assay [9] is U-87 MG. Briefly: Induction of apoptosis in human U-87 MG cells assessed as late apoptotic cells at 2 uM incubated for 48 hrs by Annexin V-FITC/PI staining based flow cytometry analysis (reference value: 11 +/- 1%). The format is functional, U-87MG ATCC.
In assay [10] the test system is U-251. Briefly: Inhibition of cell migration in human U-251 cells incubated for 48 hrs by inverted optical microscope based wound healing assay. It is filed as functional.
Assay [11] deals with U-251. The experiment in a line: Induction of apoptosis in human U-251 cells assessed as late apoptotic cells at 5 uM incubated for 48 hrs by Annexin V-FITC/PI staining based flow cytometry analysis (reference value: 1.3 +/- 0.6%). The format is functional.
The subject of assay [12] is T98G. The experiment in a line: Induction of apoptosis in human T98G cells assessed as late apoptotic cells at 10 uM incubated for 48 hrs by Annexin V-FITC/PI staining based flow cytometry analysis (reference value: 3.7 +/- 0.3 %). It is filed as functional.
The subject of assay [13] is U-87 MG. Briefly: Induction of apoptosis in human U-87 MG cells assessed as total apoptotic cells at 5 uM incubated for 48 hrs by Annexin V-FITC/PI staining based flow cytometry analysis (reference value: 16 +/- 1%). It is filed as functional, U-87MG ATCC.
Assay [14] concerns T98G. Briefly: Induction of apoptosis in human T98G cells assessed as early apoptotic cells at 2 uM incubated for 48 hrs by Annexin V-FITC/PI staining based flow cytometry analysis (reference value: 2.7 +/- 0.5 %). It is filed as functional.
In assay [15] the test system is U-251. Briefly: Induction of apoptosis in human U-251 cells assessed as late apoptotic cells at 10 uM incubated for 48 hrs by Annexin V-FITC/PI staining based flow cytometry analysis (reference value: 1.3 +/- 0.6%). It is filed as functional.
Assay [16] relates to U-87 MG. The experiment in a line: Induction of apoptosis in human U-87 MG cells assessed as total apoptotic cells at 10 uM incubated for 48 hrs by Annexin V-FITC/PI staining based flow cytometry analysis (reference value: 16 +/- 1%). The format is functional, U-87MG ATCC.
Assay [17] concerns U-87 MG. The experiment in a line: Induction of apoptosis in human U-87 MG cells assessed as early apoptotic cells at 10 uM incubated for 48 hrs by Annexin V-FITC/PI staining based flow cytometry analysis (reference value: 1.1 +/- 0.6 %). The format is functional, U-87MG ATCC.
The test system of assay [18] is U-251. Briefly: Induction of apoptosis in human U-251 cells assessed as early apoptotic cells at 2 uM incubated for 48 hrs by Annexin V-FITC/PI staining based flow cytometry analysis (reference value: 1.5 +/- 0.4 %). It is filed as functional.
Assay [19] concerns T98G. The experiment in a line: Inhibition of cell migration in human T98G cells incubated for 48 hrs by inverted optical microscope based wound healing assay. It is filed as functional.
The subject of assay [20] is U-251. The experiment in a line: Induction of apoptosis in human U-251 cells assessed as total apoptotic cells at 10 uM incubated for 48 hrs by Annexin V-FITC/PI staining based flow cytometry analysis (reference value: 2.8 +/- 0.3%). The format is functional.
In assay [21] the test system is U-251. Briefly: Induction of apoptosis in human U-251 cells assessed as total apoptotic cells at 5 uM incubated for 48 hrs by Annexin V-FITC/PI staining based flow cytometry analysis (reference value: 2.8 +/- 0.3%). The format is functional.
For assay [22], the system named is T98G. Briefly: Induction of apoptosis in human T98G cells assessed as total apoptotic cells at 5 uM incubated for 48 hrs by Annexin V-FITC/PI staining based flow cytometry analysis (reference value: 6.4 +/- 0.8 %). It is filed as functional.
Assay [23] relates to T98G. Briefly: Induction of apoptosis in human T98G cells assessed as total apoptotic cells at 10 uM incubated for 48 hrs by Annexin V-FITC/PI staining based flow cytometry analysis (reference value: 6.4 +/- 0.8 %). It is filed as functional.
Assay [24] relates to U-87 MG. Briefly: Antiproliferative activity against human U-87 MG cells assessed as inhibition of cell growth incubated for 48 hrs by MTT assay. The format is functional, cell-based, U-87MG ATCC. In general terms: Tetrazolium dyes change colour on reduction, which living cells bring about.
Assay [25] has as its system U-87 MG. Briefly: Induction of apoptosis in human U-87 MG cells assessed as late apoptotic cells at 10 uM incubated for 48 hrs by Annexin V-FITC/PI staining based flow cytometry analysis (reference value: 11 +/- 1%). The format is functional, U-87MG ATCC.
Assay [26] deals with U-87 MG. Briefly: Inhibition of cell invasion in human U-87 MG cells at 5 to 10 uM incubated for 48 hrs by crystal violet staining based fluorescent microscope analysis. It is filed as functional. Particulars: U-87MG ATCC, dose 5-10 µM.
Assay [27] has as its system U-251. Briefly: Induction of apoptosis in human U-251 cells assessed as early apoptotic cells at 10 uM incubated for 48 hrs by Annexin V-FITC/PI staining based flow cytometry analysis (reference value: 1.5 +/- 0.4 %). It is filed as functional.
The subject of assay [28] is T98G. The experiment in a line: Induction of apoptosis in human T98G cells assessed as late apoptotic cells at 5 uM incubated for 48 hrs by Annexin V-FITC/PI staining based flow cytometry analysis (reference value: 3.7 +/- 0.3 %). It is filed as functional.
Assay [29] relates to U-87 MG. Briefly: Induction of apoptosis in human U-87 MG cells assessed as late apoptotic cells at 5 uM incubated for 48 hrs by Annexin V-FITC/PI staining based flow cytometry analysis (reference value: 11 +/- 1%). It is filed as functional, U-87MG ATCC.
For assay [30], the system named is U-251. Briefly: Antiproliferative activity against human U-251 cells assessed as inhibition of cell growth at 100 uM incubated for 48 hrs by MTT assay. The format is functional. More on the design: scale not given: the % may be the effect or the level left.
The test system of assay [31] is U-87 MG. The experiment in a line: Inhibition of cell migration in human U-87 MG cells incubated for 48 hrs by inverted optical microscope based wound healing assay. It is filed as functional. Particulars: U-87MG ATCC.
Assay [32] concerns T98G. Briefly: Induction of apoptosis in human T98G cells assessed as early apoptotic cells at 10 uM incubated for 48 hrs by Annexin V-FITC/PI staining based flow cytometry analysis (reference value: 2.7 +/- 0.5 %). It is filed as functional.
Assay [33] concerns U-87 MG. Briefly: Induction of apoptosis in human U-87 MG cells assessed as total apoptotic cells at 2 uM incubated for 48 hrs by Annexin V-FITC/PI staining based flow cytometry analysis (reference value: 16 +/- 1%). The format is functional, U-87MG ATCC.
Assay [34] relates to U-87 MG. Briefly: Antiproliferative activity against human U-87 MG cells assessed as inhibition of cell growth at 100 uM incubated for 48 hrs by MTT assay. The format is functional, U-87MG ATCC. On the set-up: scale not given: the % may be the effect or the level left.
Assay [35] concerns T98G. The experiment in a line: Induction of apoptosis in human T98G cells assessed as total apoptotic cells at 2 uM incubated for 48 hrs by Annexin V-FITC/PI staining based flow cytometry analysis (reference value: 6.4 +/- 0.8 %). It is filed as functional.
Assay [36] relates to U-251. Briefly: Induction of apoptosis in human U-251 cells assessed as late apoptotic cells at 2 uM incubated for 48 hrs by Annexin V-FITC/PI staining based flow cytometry analysis (reference value: 1.3 +/- 0.6%). The format is functional.
Assay [37] deals with U-87 MG. The experiment in a line: Induction of apoptosis in human U-87 MG cells assessed as early apoptotic cells at 5 uM incubated for 48 hrs by Annexin V-FITC/PI staining based flow cytometry analysis (reference value: 1.1 +/- 0.6 %). The format is functional, U-87MG ATCC.
In assay [38] the test system is T98G. Briefly: Antiproliferative activity against human T98G cells assessed as inhibition of cell growth incubated for 48 hrs by MTT assay. It is filed as functional, cell-based.
For assay [39], the system named is T98G. The experiment in a line: Antiproliferative activity against human T98G cells assessed as inhibition of cell growth at 100 uM incubated for 48 hrs by MTT assay. It is filed as functional, cell-based.

On to `C=C(C)C#C[C@]12O[C@H]1[C@@H]1OC(C)(C)[C@H](OC(C)=O)C[C@@]13O[C@H]3C2=O`, for which the inhibition entry in the assay on T98G [1], with U-251 [3] and with U-87 MG [26] was “Active” throughout. In addition, the Activity in the assay with U-87 MG [2] came out at 3.6%; with T98G [4], 4.1%; in the assay with U-251 [5], 3.1%; in the assay on U-251 [6] it was 3.2%; with T98G [7], 2.6%; in the assay on U-87 MG [9] it was 18%. Also, the Activity is reported as 6% with U-251 [11]; 6.5% in the assay with T98G [12]; 30% in the assay on U-87 MG [13]; 1.5% in the assay with T98G [14]; 5.4% with U-251 [15]; 84% in the assay with U-87 MG [16]. In addition, the Activity in the assay on U-87 MG [17] came to 17%; with U-251 [18], 1.2%; in the assay with U-251 [20], 10%; in the assay on U-251 [21], 9%; in the assay with T98G [22], 7.7%; with T98G [23] it was 11%. For the same molecule, the Activity is reported as 67% in the assay with U-87 MG [25]; 5% with U-251 [27]; 5.1% in the assay with T98G [28]; 14% in the assay with U-87 MG [29]; greater than 50% in the assay on U-251 [30]; 4.8% in the assay on T98G [32]. The Activity in the assay with U-87 MG [33] is given as 22%; in the assay on U-87 MG [34], greater than 50%; in the assay with T98G [35], 5.6%; with U-251 [36], 2%; in the assay on U-87 MG [37] it was 16%. Moreover, the IC50 (commonly the midpoint of a concentration-inhibition curve) in the assay on U-251 [8] was 20 µM; in the assay on U-87 MG [24], 6.8 µM; in the assay on T98G [38], 13 µM. Moreover, the inhibition result in the assay on U-251 [10], in the assay with T98G [19] and in the assay on U-87 MG [31] was “Dose-Dependent Effect” each time.
On to `CC(=O)O[C@@H]1C[C@]23O[C@H]2C2=C(C(=O)CC(C)(C)O2)[C@@H](O)[C@@H]3OC1(C)C`, for which the outcome in the assay with T98G [39], in the assay with U-251 [30] and in the assay with U-87 MG [34] (U-87MG ATCC) was inactive.
As to `CC(=O)O[C@@H]1C[C@]23O[C@H]2[C@]2(O)CC(C)=CC(=O)C2=C[C@@H]3OC1(C)C`, the outcome in the assay on T98G [39], in the assay with U-251 [30] and in the assay on U-87 MG [34] (U-87MG ATCC) was inactive.
On to `C=C(C)C#C[C@]12O[C@H]1[C@@H]1OC(C)(C)[C@H](OC(C)=O)C[C@@]13O[C@H]3[C@@H]2OC(C)=O`, for which the Activity with U-251 [30] and in the assay with U-87 MG [34] was greater than 50% in each case.
For `CO[C@@H]1C2=C(OC(C)(C)CC2=O)[C@@H]2O[C@@]23C[C@@H](OC(C)=O)C(C)(C)O[C@@H]13`, the outcome in the assay on T98G [39], in the assay on U-251 [30] and in the assay with U-87 MG [34] (U-87MG ATCC) was inactive.
